Results reported in ChEMBL document CHEMBL1201862, “PubChem BioAssay data set” (2004).
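Interpolation was linear, between the two tested concentrations surrounding the appropriate level; five concentrations were tested over 48 hours in 96-well plates. At the GI50, growth is halved.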 The source made the active and inactive calls. No stated cut-off is given here; in the data, active = GI50 up to about 1.1 µM and inactive = higher.

Legend:
Assay in all cases: growth of human tumour cells (NCI), 48 h
786-0 = system: 786-0
A498 = system: A498
A549 = system: A549
ACHN = system: ACHN
BT-549 = system: BT-549
CAKI-1 = system: CAKI-1
CCRF-CEM = system: CCRF-CEM
COLO 205 = system: COLO 205
DU-145 = system: DU-145
HCC 2998 = system: HCC 2998
HCT-116 = system: HCT-116
HCT-15 = system: HCT-15
HL-60 = system: HL-60
HOP-62 = system: HOP-62
HOP-92 = system: HOP-92
HT-29 = system: HT-29
Hs-578T = system: Hs-578T
IGROV-1 = system: IGROV-1
K562 = system: K562
KM12 = system: KM12
LOX IMVI = system: LOX IMVI
M14 = system: M14
MCF7 = system: MCF7
MDA-MB-231 = system: MDA-MB-231
MDA-MB-435 = system: MDA-MB-435
MDA-N = system: MDA-N
MOLT-4 = system: MOLT-4
Malme-3M = system: Malme-3M
NCI-H23 = system: NCI-H23
NCI-H460 = system: NCI-H460
NCI/ADR-RES = system: NCI/ADR-RES
OVCAR-3 = system: OVCAR-3
OVCAR-4 = system: OVCAR-4
OVCAR-5 = system: OVCAR-5
PC-3 = system: PC-3
RPMI-8226 = system: RPMI-8226
RXF 393 = system: RXF 393
SF-268 = system: SF-268
SF-295 = system: SF-295
SF-539 = system: SF-539
SK-MEL-28 = system: SK-MEL-28
SK-MEL-2 = system: SK-MEL-2
SK-MEL-5 = system: SK-MEL-5
SK-OV-3 = system: SK-OV-3
SN12C = system: SN12C
SNB-19 = system: SNB-19
SNB-75 = system: SNB-75
SR = system: SR
SW-620 = system: SW-620
T47D = system: T47D
TK-10 = system: TK-10
U-251 = system: U-251
UACC-257 = system: UACC-257
UACC-62 = system: UACC-62
UO-31 = system: UO-31
EKVX = system: EKVX
NCI-H226 = system: NCI-H226
NCI-H522 = system: NCI-H522
OVCAR-8 = system: OVCAR-8

Measured: GI50

[N-]=[N+]=NC1(c2ccccc2)C(=O)Nc2ccccc2C1=O (stereo not drawn)
33.8 µM: HCT-15
inactive: 786-0 68.2 µM | A549 76.4 µM | ACHN 34.6 µM | BT-549 13.8 µM | CAKI-1 32.2 µM | CCRF-CEM 27.3 µM | COLO 205 71.4 µM | DU-145 75.5 µM | HCC 2998 57.8 µM | HCT-116 30.3 µM | HL-60 34.5 µM | HOP-62 41.8 µM | HOP-92 26.1 µM | HT-29 31.3 µM | Hs-578T 22.3 µM | IGROV-1 37.1 µM | K562 29.4 µM | KM12 30.1 µM | LOX IMVI 37.5 µM | M14 20.4 µM | MCF7 35 µM | MDA-MB-231 55.2 µM | MDA-MB-435 11.3 µM | MDA-N 21.4 µM | MOLT-4 21.7 µM | Malme-3M 40.7 µM | NCI-H23 34.9 µM | NCI-H460 37.5 µM | NCI/ADR-RES 51.2 µM | OVCAR-3 35 µM | OVCAR-4 54.7 µM | OVCAR-5 30 µM | PC-3 25.1 µM | RPMI-8226 22.7 µM | RXF 393 25.5 µM | SF-268 38.2 µM | SF-295 56.4 µM | SF-539 36.8 µM | SK-MEL-28 56.2 µM | SK-MEL-2 24.4 µM | SK-MEL-5 14.9 µM | SK-OV-3 55.6 µM | SN12C 48.8 µM | SNB-19 38 µM | SNB-75 60.3 µM | SR 41.2 µM | SW-620 26.4 µM | T47D 95.5 µM | TK-10 49.5 µM | U-251 41.2 µM | UACC-257 78.2 µM | UACC-62 19.1 µM | UO-31 22.1 µM
active: A498 0.706 µM

CC(C)(C)OC(=O)NCC(=O)N1CCCN(C(=O)CNC(=O)OC(C)(C)C)CC1
inactive: 786-0 > 100 µM | A498 > 100 µM | A549 > 100 µM | ACHN > 100 µM | BT-549 > 100 µM | CAKI-1 > 100 µM | COLO 205 > 100 µM | DU-145 > 100 µM | EKVX > 100 µM | HCC 2998 > 100 µM | HCT-116 > 100 µM | HL-60 > 100 µM | HOP-62 > 100 µM | HOP-92 > 100 µM | HT-29 > 100 µM | Hs-578T > 100 µM | IGROV-1 > 100 µM | K562 > 100 µM | KM12 > 100 µM | LOX IMVI > 100 µM | M14 > 100 µM | MCF7 > 100 µM | MDA-MB-231 > 100 µM | MDA-MB-435 > 100 µM | MDA-N > 100 µM | MOLT-4 > 100 µM | Malme-3M > 100 µM | NCI-H226 > 100 µM | NCI-H23 > 100 µM | NCI-H460 > 100 µM | NCI-H522 > 100 µM | NCI/ADR-RES > 100 µM | OVCAR-3 > 100 µM | OVCAR-4 > 100 µM | OVCAR-5 > 100 µM | OVCAR-8 > 100 µM | PC-3 > 100 µM | RPMI-8226 > 100 µM | RXF 393 > 100 µM | SF-268 > 100 µM | SF-295 > 100 µM | SK-MEL-28 > 100 µM | SK-MEL-2 > 100 µM | SK-MEL-5 > 100 µM | SK-OV-3 > 100 µM | SN12C > 100 µM | SNB-19 > 100 µM | SNB-75 > 100 µM | SW-620 > 100 µM | T47D > 100 µM | TK-10 > 100 µM | U-251 > 100 µM | UACC-257 > 100 µM | UACC-62 > 100 µM | UO-31 > 100 µM
> 100 µM: HCT-15

CC1(C)Oc2ccc(Cl)cc2C12CC2
inactive: 786-0 16.7 µM | A498 15.1 µM | A549 18.9 µM | ACHN 16.3 µM | BT-549 21.1 µM | CAKI-1 15.6 µM | CCRF-CEM 22.7 µM | COLO 205 14 µM | DU-145 15.8 µM | EKVX 10.8 µM | HCC 2998 15.8 µM | HCT-116 14.7 µM | HL-60 18.5 µM | HOP-62 18.2 µM | HT-29 17.6 µM | Hs-578T 24.4 µM | IGROV-1 14.7 µM | K562 15.5 µM | KM12 17.7 µM | LOX IMVI 16.6 µM | M14 18.8 µM | MCF7 16.9 µM | MDA-MB-231 16.6 µM | MDA-MB-435 15.5 µM | MDA-N 17.8 µM | MOLT-4 17.1 µM | Malme-3M 23.4 µM | NCI-H226 13.6 µM | NCI-H23 20.1 µM | NCI-H460 17.8 µM | NCI/ADR-RES 18.4 µM | OVCAR-3 13.8 µM | OVCAR-4 13.8 µM | OVCAR-5 17.4 µM | OVCAR-8 14.7 µM | PC-3 13.9 µM | RPMI-8226 16.1 µM | RXF 393 15.6 µM | SF-268 16.6 µM | SF-295 14 µM | SF-539 31.5 µM | SK-MEL-28 17.9 µM | SK-MEL-2 16 µM | SK-MEL-5 18 µM | SK-OV-3 21.7 µM | SN12C 18.8 µM | SNB-19 16.5 µM | SNB-75 16.8 µM | SR 18.1 µM | SW-620 11.8 µM | T47D 22.6 µM | TK-10 18.4 µM | U-251 15.3 µM | UACC-257 15.1 µM | UACC-62 40.5 µM | UO-31 16.9 µM
17.1 µM: HCT-15
